Results as given in patent publication US10294202B2, “Pyrrolidinones as herbicides” (FMC Corporation, priority 2013, dated 2019).

Tests used:
[1] = system: ryegrass, Italian; assay: Test A pre-/postemergence herbicide test; assay type: in vivo, Lolium multiflorum; conditions: for Plant response rating, Ryegrass, Italian: 0 to 100 scale
Method in brief: (§1)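 Seeds in loam–sand blend received preemergence directed soil spray; separately, plants 2–10 cm at one- to two-leaf stage received postemergence spray, both with test chemicals in non-phytotoxic solvent with surfactant. After ~10 days in greenhouse, injury rated visually against untreated controls, 0 (no effect) to 100 (complete control).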

[2] = system: wheat; assay: Test A pre-/postemergence herbicide test; assay type: in vivo, Triticum aestivum; conditions: Postemergence
Method in brief: as §1

[3] = system: kochia; assay: Test A pre-/postemergence herbicide test; assay type: in vivo, Kochia scoparia; conditions: for Plant response rating, Kochia: 0 to 100 scale
Method in brief: as §1

[4] = system: pigweed; assay: Test A pre-/postemergence herbicide test; assay type: in vivo, Amaranthus retroflexus; conditions: for Plant response rating, Pigweed: 0 to 100 scale
Method in brief: as §1

[5] = system: giant foxtail; assay: Test A pre-/postemergence herbicide test; assay type: in vivo, Setaria faberii; conditions: for Plant response rating, Foxtail, Giant: 0 to 100 scale
Method in brief: as §1

[6] = system: galium; assay: Test A postemergence herbicide test; assay type: in vivo, Galium aparine
Method in brief: (§2)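 Blackgrass and galium grown in pots of loam soil–sand blend, treated postemergence at 2–10 cm height, one- to two-leaf stage. Plants kept in greenhouse ~10 days, then visually rated for injury against untreated controls on a 0–100 scale (0 no effect, 100 complete control).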

[7] = system: ragweed; assay: Test A pre-/postemergence herbicide test; assay type: in vivo, Ambrosia elatior; conditions: for Plant response rating, Ragweed: 0 to 100 scale
Method in brief: as §1

[8] = system: rice; assay: Test B flooded paddy test; assay type: in vivo, Oryza sativa; conditions: 500 g ai/ha, Flood; scale of 0 to 100 where 0 is no effect and 100 is complete control
Method in brief: (§3)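 Scoring: visual, compared with untreated controls, 0 = no effect through 100 = complete control, taken 13 to 15 days after treatment in the greenhouse. Compounds had been added to paddy water over soil flooded 3 cm deep at the plants' 2-leaf stage.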

[9] = system: ducksalad; assay: Test B flooded paddy test; assay type: in vivo, Heteranthera limosa; conditions: 500 g ai/ha, Flood; scale of 0 to 100 where 0 is no effect and 100 is complete control
Method in brief: as §3

[10] = system: corn; assay: Test A pre-/postemergence herbicide test; assay type: in vivo, Zea mays; conditions: Postemergence
Method in brief: as §1

[11] = system: barnyardgrass; assay: Test B flooded paddy test; assay type: in vivo, Echinochloa crus-galli; conditions: 500 g ai/ha, Flood; scale of 0 to 100 where 0 is no effect and 100 is complete control
Method in brief: as §3

[12] = system: barnyardgrass; assay: Test A pre-/postemergence herbicide test; assay type: in vivo, Echinochloa crus-galli; conditions: for Plant response rating, Barnyardgrass: 0 to 100 scale
Method in brief: as §1

[13] = system: blackgrass; assay: Test A postemergence herbicide test; assay type: in vivo, Alopecurus myosuroides
Method in brief: as §2

[14] = system: sedge, umbrella; assay: Test B flooded paddy test; assay type: in vivo, Cyperus difformis; conditions: 500 g ai/ha, Flood; scale of 0 to 100 where 0 is no effect and 100 is complete control
Method in brief: as §3

[15] = 125 g ai/ha, visual rating, 0 no effect, 100 complete control, approximately 10 days, preemergence
[16] = Postemergence, 125 g ai/ha, 0 is no effect, 100 is complete control
[17] = preemergence, 500 g ai/ha, 0 is no effect and 100 is complete control
[18] = 125 g ai/ha, 0 to 100 scale, 0 is no effect, 100 is complete control

In the case of `O=C1NCC(c2ccc(Cl)cc2)C1C(=O)Nc1ccccc1F` (stereo not drawn) [Compound 217], the “Plant response rating, Ryegrass, Italian” value [1, 15] is reported as 40, the “Plant response rating, Ryegrass, Italian” value [1, 16] is reported as 0 and the “Ryegrass, Italian plant response rating (0 to 100 scale, 0 is no effect, 100 is complete control)” value ([1]; Postemergence, 500 g ai/ha) is reported as 30. The “Plant response rating, Ryegrass, Italian” value [1, 17] was 60, the “Plant response rating, Wheat” value [2, 18] was 20 and the “Wheat plant response rating (0 to 100 scale, 0 is no effect, 100 is complete control)” value ([2]; 500 g ai/ha) was 30. The “Plant response rating, Kochia” value [3, 15] was 30, the “Plant response rating, Kochia” value [3, 16] was 20 and the “Kochia plant response rating (0 to 100 scale, 0 is no effect, 100 is complete control)” value ([3]; Postemergence, 500 g ai/ha) was 70. The “Plant response rating, Kochia” value [3, 17] was 70, the “Plant response rating, Pigweed” value [4, 15] was 20 and the “Plant response rating, Pigweed” value [4, 16] was 0. For the same compound, the “Pigweed plant response rating (0 to 100 scale, 0 is no effect, 100 is complete control)” value ([4]; Postemergence, 500 g ai/ha) was 0, the “Plant response rating, Pigweed” value [4, 17] was 40 and the “Plant response rating, Foxtail, Giant” value [5, 15] was 90. The “Plant response rating, Foxtail, Giant” value [5, 16] was 80, the “Foxtail, Giant plant response rating (0 to 100 scale, 0 is no effect, 100 is complete control)” value ([5]; Postemergence, 500 g ai/ha) was 90 and the “Plant response rating, Foxtail, Giant” value [5, 17] was 90. The “Plant response rating, Galium” value [6, 18] was 30, the “Galium plant response rating (0 to 100 scale, 0 is no effect, 100 is complete control)” value ([6]; 500 g ai/ha) was 50 and the “Plant response rating, Ragweed” value [7, 15] was 0. The “Plant response rating, Ragweed” value [7, 16] was 0, the “Ragweed plant response rating (0 to 100 scale, 0 is no effect, 100 is complete control)” value ([7]; Postemergence, 500 g ai/ha) was 30 and the “Plant response rating, Ragweed” value [7, 17] was 50. The “Plant response rating, Rice” value [8] was 0, the “Plant response rating, Ducksalad” value [9] was 100 and the “Plant response rating, Corn” value [10, 18] was 20. The “Corn plant response rating (0 to 100 scale, 0 is no effect, 100 is complete control)” value ([10]; 500 g ai/ha) was 30, the “Plant response rating, Barnyardgrass” value [11] was 40 and the “Plant response rating, Barnyardgrass” value [12, 15] was 70. For the same compound, the “Plant response rating, Barnyardgrass” value [12, 16] was 70, the “Barnyardgrass plant response rating (0 to 100 scale, 0 is no effect, 100 is complete control)” value ([12]; Postemergence, 500 g ai/ha) was 90 and the “Plant response rating, Barnyardgrass” value [12, 17] was 90. For the same compound, the “Plant response rating, Blackgrass” value [13, 18] was 20, the “Blackgrass plant response rating (0 to 100 scale, 0 is no effect, 100 is complete control)” value ([13]; 500 g ai/ha) was 50 and the “Plant response rating, Sedge, Umbrella” value [14] was 0.
